In patent US5324725A, “7-fused 2-(piperazinoalkyl) indole derivatives, intermediates and compositions thereof” (Kali-Chemie Pharma GmbH, priority 1991, dated 1994):

What was measured:
[1] = Determination of the minimum toxic dose; set-up: species or system male mice; conditions: mouse, in vivo, po, 300 mg/kg, 1440 min
Procedure: 2. Determination of the minimum toxic dose.
Maximum doses of 300 mg/kg of the test substance were administered orally to male mice weighing 20-25 g. The animals were observed carefully for 3 hours for toxicity symptoms. In addition, all symptoms and deaths over a period of 24 hours after administration were recorded. Associated symptoms were also observed and recorded. If death or severe toxic symptoms were observed, further mice were administered increasingly lower doses. The lowest dose which caused death or severe toxic symptoms is given as the minimum toxic dose in the following Table B.

[2] = test system: Passive cutaneous anaphylaxis (P.C.A.); assay: Inhibition of passive cutaneous anaphylaxis (P.C.A.); type: in vivo, rat (Sprague-Dawley); conditions: Rattus norvegicus, 1 h; rats, 2 × 10^-5 mol/kg p.o., one hour before ovalbumin challenge
Method in brief: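 Sprague-Dawley rats (150-180 g) were sensitized intradermally with rat IgE-rich anti-ovalbumin serum and challenged 24 h later with i.v. ovalbumin 8.25 mg/kg plus Evans blue. Compound was given orally at 2×10^-5 mol/kg 1 h before challenge. Dye exudation was scored visually at 30 min as % inhibition versus vehicle controls.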

Row | Structure (SMILES) | Minimum toxic dose (lowest dose which caused death or severe toxic symptoms) [1] [mg/kg] | inhibition in vivo at 20 µmol/kg [2] [%]
1 | Cc1ccnc(N2CCN(CCc3c(C)n4c5c(cccc35)CCC4)CC2)c1 [Example 1, 5,6-Dihydro-2-methyl-1-{2-[4-(4-methylpyridin-2-yl)piperazin-1-yl]ethyl}-4H-pyrrolo[3,2,1-ij]quinoline] | 100 | 98
2 | CCc1c(C(O)CN2CCN(c3cc(C)ccn3)CC2)c2cccc3c2n1CCC3 (centres unmarked) [Example 14, 2-Ethyl-5,6-dihydro-1-{2-[4-(4-methylpyridin-2-yl)piperazin-1-yl]-1-hydroxyethyl}-4H-pyrrolo[3,2,1-ij]quinoline] | 300 | 65
3 | Cc1ccnc(N2CCN(CCc3c(C)n4c5c(cccc35)CCC4c3ccccc3)CC2)c1 (centres unmarked) [Example 3, 5,6-dihydro-2-methyl-4-phenyl-1-{2-[4-(4-methylpyridine-2-yl)piperazin-1-yl]-ethyl}-4H-pyrrolo[3,2,1-ij]quinoline] | 300 | 100
4 | Cc1ccc(N2CCN(CCc3c(C)n4c5c(cccc35)CCC4)CC2)nc1 [Example 42] | 100 | 50
5 | Cc1ccnc(N2CCN(CCc3c(C)n4c5c(cccc35)SCC4)CC2)c1 [Example 11, 5-Methyl-6-{2-[4-(4-methylpyridin-2-yl)piperazin-1-yl]ethyl}-2,3-dihydro-pyrrolo[1,2,3-de]-1,4-benzo-thiazine] | 100 | 100
6 | Cc1ccnc(N2CCN(CCc3c(C)n4c5c(ccc(Cl)c35)OCC4)CC2)c1 [Example 35] | 300 | 75
7 | Cc1cc2c3c(c1)c(CCN1CCC(C(=O)c4ccc(F)cc4)CC1)c(C)n3CCC2 [Example 55] | 300 | 80
8 | Cc1ccnc(N2CCN(CCc3c(C)n4c5c(cc(C)cc35)CCC4)CC2)c1 [Example 54] | 300 | 93
9 | Cc1ccnc(N2CCN(CCc3cn4c5c(cccc35)CCC4)CC2)c1 [Example 13, 5,6-Dihydro-1-{2-[4-(4-methylpyridin-2-yl)piperazin-1-yl]ethyl}-4H-pyrrolo[3,2,1-ij]quinoline] | 100 | 83
10 | Cc1ccnc(N2CCN(CCc3c(C)n4c5c(cccc35)C(C)CC4)CC2)c1 (centres unmarked) [Example 57] | 300 | 100
